Assay results reported in PubChem BioAssay (NCI).
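Method: 48-hour compound exposure of cells in 96-well plates, five concentrations, linear interpolation of endpoints. Definition used: TGI = concentration required for complete inhibition of growth.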

Experiments:
Experiment in all cases: DTP human tumour cell line panel, 48 h
IGROV1 ovarian = tested on: IGROV1 ovarian
A549 NSCLC = tested on: A549 NSCLC
NCI-H460 lung = tested on: NCI-H460 lung
HCT-15 colon = tested on: HCT-15 colon
EKVX NSCLC = tested on: EKVX NSCLC
SF-539 CNS = tested on: SF-539 CNS
RXF 393 renal = tested on: RXF 393 renal
SNB-75 CNS = tested on: SNB-75 CNS
COLO 205 colon = tested on: COLO 205 colon
HCT-116 colon = tested on: HCT-116 colon
HCC-2998 colon = tested on: HCC-2998 colon
OVCAR-5 ovarian = tested on: OVCAR-5 ovarian
SF-295 CNS = tested on: SF-295 CNS
SK-MEL-2 melanoma = tested on: SK-MEL-2 melanoma
LOX IMVI melanoma = tested on: LOX IMVI melanoma
A498 renal = tested on: A498 renal
CCRF-CEM leukemia = tested on: CCRF-CEM leukemia
786-0 renal = tested on: 786-0 renal
NCI-H226 lung = tested on: NCI-H226 lung
OVCAR-3 ovarian = tested on: OVCAR-3 ovarian
SN12C renal = tested on: SN12C renal
NCI-H23 lung = tested on: NCI-H23 lung
K-562 leukemia = tested on: K-562 leukemia
SNB-78 CNS = tested on: SNB-78 CNS
KM20L2 colon = tested on: KM20L2 colon
TK-10 renal = tested on: TK-10 renal
DMS 114 small cell lung = tested on: DMS 114 small cell lung
MOLT-4 leukemia = tested on: MOLT-4 leukemia
UO-31 renal = tested on: UO-31 renal
M19-MEL melanoma = tested on: M19-MEL melanoma
SF-268 CNS = tested on: SF-268 CNS
SK-OV-3 ovarian = tested on: SK-OV-3 ovarian
UACC-257 melanoma = tested on: UACC-257 melanoma
HOP-62 NSCLC = tested on: HOP-62 NSCLC
SK-MEL-5 melanoma = tested on: SK-MEL-5 melanoma
HL-60(TB) leukemia = tested on: HL-60(TB) leukemia
OVCAR-8 ovarian = tested on: OVCAR-8 ovarian
ACHN renal = tested on: ACHN renal
SK-MEL-28 melanoma = tested on: SK-MEL-28 melanoma
KM12 colon = tested on: KM12 colon
LXFL 529 NSCLC = tested on: LXFL 529 NSCLC
DLD-1 colon = tested on: DLD-1 colon
M14 melanoma = tested on: M14 melanoma
MALME-3M melanoma = tested on: MALME-3M melanoma
SW-620 colon = tested on: SW-620 colon
CAKI-1 renal = tested on: CAKI-1 renal
RPMI-8226 leukemia = tested on: RPMI-8226 leukemia
UACC-62 melanoma = tested on: UACC-62 melanoma
U251 CNS = tested on: U251 CNS
SNB-19 CNS = tested on: SNB-19 CNS
HT29 colon = tested on: HT29 colon
DMS 273 small cell lung = tested on: DMS 273 small cell lung
NCI-H522 lung = tested on: NCI-H522 lung
OVCAR-4 ovarian = tested on: OVCAR-4 ovarian
HOP-92 NSCLC = tested on: HOP-92 NSCLC

COc1nc(=O)cc(N)n1C1OC(CO)C(O)C1O (configuration not stated)
TGI (IGROV1 ovarian): > 100 µM | TGI (A549 NSCLC): > 100 µM | TGI (NCI-H460 lung): > 100 µM | TGI (HCT-15 colon): > 100 µM | TGI (EKVX NSCLC): > 100 µM | TGI (SF-539 CNS): > 100 µM | TGI (RXF 393 renal): > 100 µM | TGI (SNB-75 CNS): > 100 µM | TGI (COLO 205 colon): > 100 µM | TGI (HCT-116 colon): > 100 µM | TGI (HCC-2998 colon): > 100 µM | TGI (OVCAR-5 ovarian): > 100 µM | TGI (SF-295 CNS): > 100 µM | TGI (SK-MEL-2 melanoma): > 100 µM | TGI (LOX IMVI melanoma): > 100 µM | TGI (A498 renal): > 100 µM | TGI (CCRF-CEM leukemia): > 100 µM | TGI (786-0 renal): > 100 µM | TGI (NCI-H226 lung): > 100 µM | TGI (OVCAR-3 ovarian): > 100 µM | TGI (SN12C renal): > 100 µM | TGI (NCI-H23 lung): > 100 µM | TGI (K-562 leukemia): > 100 µM | TGI (SNB-78 CNS): > 100 µM | TGI (KM20L2 colon): > 100 µM | TGI (TK-10 renal): > 100 µM | TGI (DMS 114 small cell lung): > 100 µM | TGI (MOLT-4 leukemia): > 100 µM | TGI (UO-31 renal): > 100 µM | TGI (M19-MEL melanoma): > 100 µM | TGI (SF-268 CNS): > 100 µM | TGI (SK-OV-3 ovarian): > 100 µM | TGI (UACC-257 melanoma): > 100 µM | TGI (HOP-62 NSCLC): > 100 µM | TGI (SK-MEL-5 melanoma): > 100 µM | TGI (HL-60(TB) leukemia): > 100 µM | TGI (OVCAR-8 ovarian): > 100 µM | TGI (ACHN renal): > 100 µM | TGI (SK-MEL-28 melanoma): > 100 µM | TGI (KM12 colon): > 100 µM | TGI (LXFL 529 NSCLC): > 100 µM | TGI (DLD-1 colon): > 100 µM | TGI (M14 melanoma): > 100 µM | TGI (MALME-3M melanoma): > 100 µM | TGI (SW-620 colon): > 100 µM | TGI (CAKI-1 renal): > 100 µM | TGI (RPMI-8226 leukemia): > 100 µM | TGI (UACC-62 melanoma): > 100 µM | TGI (U251 CNS): > 100 µM | TGI (SNB-19 CNS): > 100 µM | TGI (HT29 colon): > 100 µM | TGI (DMS 273 small cell lung): > 100 µM | TGI (NCI-H522 lung): > 100 µM

C#CCC(O)c1ccccc1C(O)CC#C (configuration not stated)
TGI (IGROV1 ovarian): > 100 µM | TGI (A549 NSCLC): > 100 µM | TGI (NCI-H460 lung): > 100 µM | TGI (HCT-15 colon): > 100 µM | TGI (EKVX NSCLC): > 100 µM | TGI (RXF 393 renal): 95.2 µM | TGI (SNB-75 CNS): > 100 µM | TGI (COLO 205 colon): > 100 µM | TGI (HCC-2998 colon): > 100 µM | TGI (OVCAR-5 ovarian): > 100 µM | TGI (SF-295 CNS): > 100 µM | TGI (SK-MEL-2 melanoma): > 100 µM | TGI (LOX IMVI melanoma): > 100 µM | TGI (OVCAR-4 ovarian): > 100 µM | TGI (CCRF-CEM leukemia): > 100 µM | TGI (786-0 renal): > 100 µM | TGI (OVCAR-3 ovarian): > 100 µM | TGI (SN12C renal): > 100 µM | TGI (NCI-H23 lung): > 100 µM | TGI (K-562 leukemia): > 100 µM | TGI (SNB-78 CNS): > 100 µM | TGI (KM20L2 colon): > 100 µM | TGI (TK-10 renal): > 100 µM | TGI (DMS 114 small cell lung): > 100 µM | TGI (MOLT-4 leukemia): > 100 µM | TGI (UO-31 renal): > 100 µM | TGI (M19-MEL melanoma): > 100 µM | TGI (SK-OV-3 ovarian): > 100 µM | TGI (UACC-257 melanoma): > 100 µM | TGI (HOP-62 NSCLC): > 100 µM | TGI (SK-MEL-5 melanoma): > 100 µM | TGI (HL-60(TB) leukemia): > 100 µM | TGI (OVCAR-8 ovarian): > 100 µM | TGI (ACHN renal): > 100 µM | TGI (SK-MEL-28 melanoma): > 100 µM | TGI (HOP-92 NSCLC): > 100 µM | TGI (KM12 colon): > 100 µM | TGI (LXFL 529 NSCLC): > 100 µM | TGI (DLD-1 colon): > 100 µM | TGI (M14 melanoma): > 100 µM | TGI (MALME-3M melanoma): > 100 µM | TGI (SW-620 colon): > 100 µM | TGI (CAKI-1 renal): > 100 µM | TGI (RPMI-8226 leukemia): > 100 µM | TGI (UACC-62 melanoma): > 100 µM | TGI (SNB-19 CNS): > 100 µM | TGI (HT29 colon): > 100 µM | TGI (DMS 273 small cell lung): > 100 µM | TGI (NCI-H522 lung): > 100 µM
